Data taken from patent US20200384014A1, “Pulsed Administration Of Inhaled Nitric Oxide For The Treatment Of Pulmonary Hypertension” (Bellerophon Pulse Technologies LLC, priority 2017, published 2020).

Test system: systolic pulmonary arterial pressure (sPAP) in subjects with PH-COPD
Test: Phase 2 placebo-controlled clinical study of pulsed iNO in subjects with PH-COPD on LTOT (IK-7002-COPD-201; NCT01728220)
Assay type: in vivo, human
Set-up: Average Change in sPAP vs Baseline: unit not given beside the values
Conditions: for Average Change in sPAP vs Baseline: PH-COPD subjects on LTOT, echocardiography
Source text: This study was a Phase 2, placebo-controlled, double-blind, randomized, two-part, dose-confirming clinical study characterizing the pharmacodynamic effects of pulsed iNO versus placebo in subjects with PH-COPD on LTOT (IK-7002-COPD-201; NCT01728220). The primary outcome of this study was change in systolic pulmonary arterial pressure (sPAP) from baseline after treatment with iNO (measured by 2D transthoracic echocardiography with Doppler). The secondary outcome was the occurrence of a decrease ≥5 mm Hg of partial pressure of oxygen in arterial blood (PaO2) from baseline after treatment with iNO.
Subjects also had tricuspid regurgitation velocity (TRV)≥2.9 m/s as measured by echocardiogram, a post-bronchodilatory forced expiratory volume in 1 second/forced vital capacity (FEV1/FVC)<0.7 and a FEV1<60% predicted. All subjects were at least 40 years old and were former smokers with at least 10 pack-years of tobacco cigarette smoking before study entry. All subjects also had been receiving LTOT for at least 3 months for at least 10 hours per day.
PH-COPD subjects were administered pulsed iNO at a dose of 3, 10, 15, 30 or 75 mcg/IBW kg/hr for at least 20 minutes, or received pulsed placebo (99.999% N2) for at least 20 minutes. The doses of 3 and 10 mcg/kg IBW/hr were administered from a mini-cylinder having 2,440 ppm NO and the doses of 15, 30 and 75 mcg/kg IBW/hr were administered from a mini-cylinder having 4,880 ppm NO.
The NO delivery device delivered gas comprising NO in a pulsatile manner at the beginning of the patient's breath. The minimum pulse volume is limited and for lower doses, can require 1 or more breaths to be skipped to maintain a constant dose in mcg/kg IBW/hr.

**Q.** `[N]=O` [iNO, nitric oxide] was tested. Which “Average Change in sPAP vs Baseline” value (pulsed iNO 10 mcg/kg IBW/hr for at least 20 minutes, N=21) did it give?
**A.** Its value is −4.4.

**Q.** And the “Average Change in sPAP vs Baseline” value (pulsed iNO 15 mcg/kg IBW/hr for at least 20 minutes, N=21)?
**A.** Its value is −2.4.

**Q.** What about the “Average Change in sPAP vs Baseline” value (pulsed iNO 30 mcg/kg IBW/hr for at least 20 minutes, N=24) of the same compound?
**A.** The value was −4.5.

**Q.** What about the “Average Change in sPAP vs Baseline” value (pulsed iNO 75 mcg/kg IBW/hr for at least 20 minutes, N=24) of the same compound?
**A.** The value was −4.3.

**Q.** And the “Efficacy (decrease in sPAP), in words” value (pulsed iNO 3 mcg/kg IBW/hr)?
**A.** The value was “ineffective”.

**Q.** And the “Efficacy (decrease in sPAP), in words” value (pulsed iNO 10 mcg/kg IBW/hr)?
**A.** The value was “showed efficacy”.

**Q.** And the “Efficacy (decrease in sPAP), in words” value (pulsed iNO 15 mcg/kg IBW/hr)?
**A.** Its value is “did not show efficacy”.

**Q.** And the “Efficacy (decrease in sPAP), in words” value (pulsed iNO 30 mcg/kg IBW/hr)?
**A.** The value was “showed efficacy”.

**Q.** And the “Efficacy (decrease in sPAP), in words” value (pulsed iNO 75 mcg/kg IBW/hr)?
**A.** The value was “showed efficacy”.
